The values below come from PubChem BioAssay (NCI).

Among the test systems are SK-MEL-2 melanoma; NCI-H522 lung; IGROV1 ovarian; EKVX NSCLC; SK-MEL-28 melanoma; UO-31 renal; SF-539 CNS; LOX IMVI melanoma; SR leukemia; SF-295 CNS; A549 NSCLC; KM12 colon; M14 melanoma; HCT-116 colon; NCI-H23 lung; PC-3 prostate; T-47D breast; MDA-N.
Test in all cases: NCI anticancer screen, dose series, 48 h

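Cultured in 96-well plates, cells were exposed to test compound for 48 hours across five concentrations. GI50 is the concentration that inhibits growth by half. The concentration for full growth arrest is given as TGI.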 Where only a bound is given, the exact number is not on record here.

As to `Cc1ccc2c(c1)SC(c1cc3c(cc1Br)OCO3)S2` (stereo not drawn), the TGI in the assay with SK-MEL-2 melanoma, with NCI-H522 lung, in the assay on IGROV1 ovarian, in the assay on EKVX NSCLC, with SK-MEL-28 melanoma and in the assay with UO-31 renal was over 31.6 µM in each case. Also, the TGI in the assay with SF-539 CNS, in the assay with LOX IMVI melanoma, with SR leukemia, with SF-295 CNS, with A549 NSCLC and with KM12 colon was over 31.6 µM throughout. Moreover, the TGI with M14 melanoma, in the assay on HCT-116 colon and in the assay with NCI-H23 lung was over 31.6 µM in each case.

With `NC1=CN(Cc2ccccc2)C2=N/C(=C\c3ccccc3)C(=O)N12`, the TGI with SK-MEL-2 melanoma, with NCI-H522 lung, with IGROV1 ovarian, in the assay with PC-3 prostate, in the assay on T-47D breast and in the assay with EKVX NSCLC was over 100 µM throughout. Further, the TGI in the assay on SK-MEL-28 melanoma, in the assay with UO-31 renal, in the assay with SF-539 CNS, in the assay on LOX IMVI melanoma, in the assay on SF-295 CNS and in the assay with A549 NSCLC was over 100 µM throughout. For the same compound, the TGI in the assay on KM12 colon, in the assay on M14 melanoma, with HCT-116 colon and with NCI-H23 lung was over 100 µM throughout.

For the compound `NCCCCN(CCCN)Cc1ccccc1`, the TGI with SK-MEL-2 melanoma, in the assay on NCI-H522 lung, in the assay on IGROV1 ovarian, in the assay on PC-3 prostate, with T-47D breast and with EKVX NSCLC was over 100 µM throughout. Moreover, the TGI in the assay on SK-MEL-28 melanoma, in the assay on UO-31 renal, in the assay with SF-539 CNS, in the assay on SF-295 CNS, with A549 NSCLC and in the assay on KM12 colon was over 100 µM each time. The TGI in the assay with M14 melanoma, in the assay on HCT-116 colon and in the assay on NCI-H23 lung was over 100 µM throughout.

Take `CC(C)c1c(O[Si](C(C)C)(C(C)C)C(C)C)c2c3c(ccc4c3c1OC4(C)C)C(C)CC2` (stereo not drawn): the TGI in the assay with SK-MEL-2 melanoma, in the assay on MDA-N, in the assay with NCI-H522 lung, in the assay on IGROV1 ovarian, with PC-3 prostate and with EKVX NSCLC was over 100 µM each time. The TGI in the assay with SK-MEL-28 melanoma, in the assay with UO-31 renal, with SF-539 CNS, in the assay on LOX IMVI melanoma, with SR leukemia and in the assay on SF-295 CNS was over 100 µM in each case. Also, the TGI in the assay with A549 NSCLC, in the assay with KM12 colon, in the assay on M14 melanoma, in the assay on HCT-116 colon and in the assay on NCI-H23 lung was over 100 µM each time.

Consider `O=C(O)c1nc2ccccc2nc1Nc1ccc(F)cc1`, for which the TGI is 76.5 µM in the assay with SK-MEL-2 melanoma; 82.4 µM with NCI-H522 lung; over 100 µM in the assay on IGROV1 ovarian; 90.7 µM in the assay on PC-3 prostate; over 100 µM in the assay with T-47D breast; over 100 µM with EKVX NSCLC. For the same compound, the TGI was over 100 µM in the assay with SK-MEL-28 melanoma; over 100 µM with UO-31 renal; 60 µM with SF-539 CNS; over 100 µM in the assay on LOX IMVI melanoma; 91.1 µM with SR leukemia; 58.5 µM in the assay on SF-295 CNS. In addition, the TGI in the assay on A549 NSCLC, in the assay with KM12 colon, in the assay on M14 melanoma, in the assay on HCT-116 colon and in the assay with NCI-H23 lung was over 100 µM in each case.

On to `COC(=O)c1c2c(c(-c3ccccc3)c3c1-c1nc(Cl)ccc1CC3)CCc1ccc(Cl)nc1-2`, for which the TGI in the assay on NCI-H522 lung, with IGROV1 ovarian, in the assay with EKVX NSCLC, in the assay on SK-MEL-28 melanoma, with UO-31 renal and in the assay with SF-539 CNS was over 100 µM each time. The TGI with LOX IMVI melanoma, in the assay on SR leukemia, with SF-295 CNS, with A549 NSCLC, in the assay on KM12 colon and in the assay on M14 melanoma was over 100 µM each time. For the same compound, the TGI in the assay on HCT-116 colon and in the assay on NCI-H23 lung was over 100 µM each time.

On to `CCOC(=O)C(=Cc1cc(OC)ccc1OC)C(=O)OCC`, for which the TGI in the assay with SK-MEL-2 melanoma was 18.1 µM; in the assay with NCI-H522 lung it was 14.4 µM; in the assay with IGROV1 ovarian, 58.5 µM; with EKVX NSCLC, 31.3 µM; in the assay on SK-MEL-28 melanoma, 17.1 µM; with SF-539 CNS it was 15.1 µM. For the same compound, the TGI is 19.5 µM in the assay on LOX IMVI melanoma; 26.5 µM with SF-295 CNS; 26.9 µM in the assay on A549 NSCLC; 19.9 µM in the assay with KM12 colon; 24.2 µM in the assay on M14 melanoma; 27.5 µM in the assay with HCT-116 colon. In the assay on NCI-H23 lung, this compound gave a TGI of 10.9 µM.

As for `COc1ccc(OC)c(C#Cc2ccc(OC)c(C(=O)NCCc3ccc(F)cc3)c2)c1`, the TGI in the assay with SK-MEL-2 melanoma, with NCI-H522 lung, with IGROV1 ovarian, in the assay with PC-3 prostate, in the assay with T-47D breast and with EKVX NSCLC was over 100 µM in each case. Besides, the TGI in the assay on UO-31 renal, in the assay with LOX IMVI melanoma, with SR leukemia, with SF-295 CNS, in the assay on A549 NSCLC and in the assay on KM12 colon was over 100 µM throughout. Also, the TGI in the assay with M14 melanoma, with HCT-116 colon and with NCI-H23 lung was over 100 µM in each case. Besides, the GI50 in the assay on HCT-116 colon is 4.7 µM.

With `CCCc1c(C(=O)OCC)[nH]c(-c2ccc(-c3[nH]c(C(=O)OCC)c(CCC)c3C(=O)OCC)o2)c1C(=O)OCC`, the TGI in the assay on SK-MEL-2 melanoma, with NCI-H522 lung, with IGROV1 ovarian, in the assay on EKVX NSCLC, in the assay with SK-MEL-28 melanoma and in the assay on UO-31 renal was over 100 µM in each case. In addition, the TGI in the assay with SF-539 CNS, with LOX IMVI melanoma, in the assay on SR leukemia, in the assay with SF-295 CNS, in the assay on A549 NSCLC and in the assay with KM12 colon was over 100 µM each time. Also, the TGI in the assay on M14 melanoma, with HCT-116 colon and in the assay on NCI-H23 lung was over 100 µM in each case.
